Columns and labels:
Assay type in all cases: cell-based, human
Conditions in all cases: final concentration 10 μM, added days 35 to 40
[1] = tested on: motor neurons induced to differentiate from iPS cells derived from ALS patients (TDP-43-ALS) having a mutation in TDP-43; test: Phosphorylated TDP-43 protein inclusion formation, TDP-43-ALS motor neurons
Source text: Therefore, on day 40 from the start of differentiation induction, each differentiation-induced motor neuron in Example I-1 was immunostained and the formation of phosphorylated TDP-43 protein inclusions was examined.
(§1) Using the differentiation-induced motor neurons in Example I-1, drugs which cause the ALS phenotype to be restored were screened from existing drug libraries with the neurite length, ectopic localization of FUS protein, stress granule formation, LDH leakage ratio, CV-caspase 3-positive ratio, phosphorylated TDP-43 protein inclusion formation, and the like as indices.
(§2) As a result of the screening, ropinirole was found as a promising therapeutic agent for ALS. Tables 5 and 6 show the improvement ratio (%) in the ALS phenotype due to adding ropinirole to the medium. Here, ropinirole was added to the medium on days 35 to 40 from the start of the differentiation induction of each iPS cell. Here, it is assumed that days 35 to 40 from the start of differentiation induction correspond to the early stage of the ALS disease.
(§3) The improvement ratio (%) of the ALS phenotype was calculated by Equation (1).
(§4) [formula] [In Equation (1), A represents a measurement value of motor neurons induced to differentiate from iPS cells derived from ALS patients in the absence of ropinirole, and B represents a measurement value of motor neurons induced to differentiate from iPS cells derived from ALS patients in the presence of ropinirole, and C represents a measurement value of motor neurons induced to differentiate from iPS cells derived from healthy subjects in the absence of ropinirole.]
(§5) Subsequently, in the same manner as above, the efficacy in cases of administering lower concentrations of ropinirole was evaluated.
(§6) Each drug was added to the medium at a final concentration of 10 μM.

[2] = tested on: motor neurons induced to differentiate from iPS cells derived from ALS patients (TDP-43-ALS) having a mutation in TDP-43; test: Neurite length, TDP-43-ALS motor neurons (screening, Example I-8)
Experimental: (§7) For each differentiation-induced motor neuron in Example I-1, the changes over time in the neurite length were measured. A Bio station CT (Nikon Corp.) was used to measure the neurite length over time. FIG. 1 is a graph showing measurement results of changes over time in the neurite length. The vertical axis represents neurite length (relative value), and the horizontal axis represents the number of days of culturing from the start of differentiation induction.
as §1, §2, §3, §4, §5, §6

[3] = tested on: motor neurons induced to differentiate from iPS cells derived from ALS patients (FUS-ALS) having a mutation in FUS; test: Stress granule formation (G3BP immunostaining), FUS-ALS motor neurons
Experimental: On day 40 from the start of differentiation induction, the formation of stress granules was examined using each differentiation-induced motor neuron in Example I-1. The detection of stress granules was performed by immunostaining with G3BP, which is a marker of stress granules.
as §1, §2, §3, §4, §5, §6

[4] = tested on: motor neurons induced to differentiate from iPS cells derived from ALS patients (FUS-ALS) having a mutation in FUS; test: LDH leakage ratio, FUS-ALS motor neurons
Experimental: (§8) The leakage amount of LDH into the medium is an indicator of cytotoxicity. For measurement of the LDH leakage ratio, a commercially available kit (model “LDH Cytotoxicity Detection Kit”, Takara Bio Inc.) was used.
(§9) Here, ropinirole was added to the medium on days 35 to 40 from the start of the differentiation induction of each iPS cell. Here, it is assumed that days 35 to 40 from the start of differentiation induction correspond to the early stage of the ALS disease.
as §3, §4, §5, §6

[5] = tested on: motor neurons induced to differentiate from iPS cells derived from ALS patients (TDP-43-ALS) having a mutation in TDP-43; test: LDH leakage ratio, TDP-43-ALS motor neurons
Experimental: as §8, §9, §3, §4, §5, §6

[6] = tested on: motor neurons induced to differentiate from iPS cells derived from ALS patients (FUS-ALS) having a mutation in FUS; test: Ectopic localization of FUS protein in the cytoplasm, FUS-ALS motor neurons
Source text: Therefore, on day 40 from the start of differentiation induction, each differentiation-induced motor neuron in Example I-1 was immunostained and the localization of FUS protein in the cytoplasm was examined.
as §1, §2, §3, §4, §5, §6

[7] = tested on: motor neurons induced to differentiate from iPS cells derived from ALS patients (FUS-ALS) having a mutation in FUS; test: Neurite length, FUS-ALS motor neurons (screening, Example I-8)
Experimental: as §7, §1, §2, §3, §4, §5, §6

Structure (SMILES) | TDP-43 inclusion formation improvement ratio [1] [%] | Neurite length improvement ratio [2] [%] | Stress granule formation improvement ratio [3] [%] | LDH leakage ratio improvement ratio [4] [%] | LDH leakage ratio improvement ratio [5] [%] | Ectopic localization of FUS protein improvement ratio [6] [%] | Neurite length improvement ratio [7] [%]
CO/N=C(\C(=O)N[C@@H]1C(=O)N2C(C(=O)O)=C(CSc3nc(=O)c(=O)[nH]n3C)CS[C@H]12)c1csc(N)n1 [Ceftriaxone] | 35.4 | 20.4 | 11.0 | 21.2 | 15.1 | 22.6 | 36.3
CC1=NN(c2ccccc2)C(=O)C1 [Edaravone] | 11.6 | 14.2 | 19.8 | 12.4 | 23.2 | 20.4 | 15.9

From patent publication US12678423B2, “Therapeutic agent for amyotrophic lateral sclerosis and composition for treatment” (KEIO UNIVERSITY, priority 2016, dated 2026)
